Common to all, as to type: biochemical
Assay [1] concerns the target T1, Carnosine dipeptidase 2 (CNDP2) (Mus musculus, UniProt Q9D1A2).
T1 sequence (Q9D1A2 1-475): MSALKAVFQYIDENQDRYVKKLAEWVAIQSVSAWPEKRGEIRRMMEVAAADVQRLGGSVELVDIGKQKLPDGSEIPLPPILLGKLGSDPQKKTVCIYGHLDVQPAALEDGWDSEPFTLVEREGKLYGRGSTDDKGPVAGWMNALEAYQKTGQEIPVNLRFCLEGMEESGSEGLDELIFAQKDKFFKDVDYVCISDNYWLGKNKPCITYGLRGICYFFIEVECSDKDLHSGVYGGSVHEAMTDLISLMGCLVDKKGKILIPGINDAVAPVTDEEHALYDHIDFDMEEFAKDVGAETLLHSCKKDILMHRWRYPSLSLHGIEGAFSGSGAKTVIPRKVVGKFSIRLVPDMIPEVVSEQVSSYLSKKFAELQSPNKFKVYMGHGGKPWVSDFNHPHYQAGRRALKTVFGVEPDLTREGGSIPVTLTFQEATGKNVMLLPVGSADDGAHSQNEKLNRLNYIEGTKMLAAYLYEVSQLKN
Description: LC-MS assay of Cys-Gly hydrolysis by purified CNDP2 (Cys-NEM readout; IC50 […] by Gly).

The target of assay [2] is T1, Carnosine dipeptidase 2 (CNDP2). The assay is described as above. This is another data set of the same source.
The target is the same in assay [3]. Kind of assay: LC-MS detection of Cys-NEM and Gly products from Cys-Gly ([…]) hydrolysed by purified CNDP2.

Structures are written as SMILES. Like-named read-outs stand apart in the source and are kept apart here.

In general, IC50 refers to the midpoint of a concentration-inhibition curve. Low readings indicate inhibition by little substance, high ones a need for much substance. In assay [1], `O=C(Nc1nnc(-c2ccc(F)cc2)o1)c1ccc(Cl)cc1` [KKL-35] had an IC50 of 118 µM.

`CC(C)C[C@H](NC(=O)[C@@H](O)[C@H](N)Cc1ccccc1)C(=O)O` [Bestatin] returned an IC50 in assay [2] of 1 µM.

As for `N[C@@H](CS)C(=O)NCC(=O)O` [Cys-Gly], in assay [3], the “LC-MS detection of Cys-NEM and Gly products from Cys-Gly (5 mM) hydrolysed by pu” value is “Cys-Gly was hydrolyzed by CNDP2 to produce cysteine (Cys) and glycine (Gly)”.

The values are drawn from paper PMC12655758, “Identification of KKL-35 as a Novel Carnosine Dipeptidase 2 (CNDP2) Inhibitor by In Silico Screening” (Molecules, 2025).
